Measured values as given in patent US20040147527A1, “Methods of use of gemifloxacin compounds against fluoroquinolone resistant Streptococcus pneumoniae bacteria” (priority 1999, published 2004).
Converted amounts (≈) assume the structure as drawn.

Assays:
[1] = test system: S. pneumoniae with reduced susceptibility to CIP; assay: MIC by NCCLS microbroth dilution, 80 clinical isolates with CIP MIC ≧2 μg/ml; format: cell-based; settings: Streptococcus pneumoniae
Protocol: Topoisomerase IV (parC) and DNA gyrase (gyrA) mutations were confirmed by sequencing the QRDR region of each gene. Serotyping and PFGE were performed on all isolates. […] Breakpoints have not been established for all fluoroquinolones, thus percentage resistance was not calculated.

[2] = test system: S. pneumoniae (CFX and TFX susceptible and resistant clinical isolates); assay: Postantibiotic effect (PAE), viable colony counting technique; format: cell-based, Streptococcus pneumoniae
Protocol: This invention was based, in part, on analyses evaluating the comparative activity of gemifloxacin against various strains of S. pneumoniae. An objective of these analyses was to determine the postantibiotic effect (herein “PAE”) of GFX in CFX and TFX susceptible and resistant S. pneumoniae.
CFX resistant clinical isolates of S. pneumoniae were collected from across Canada. MICs were determined using a microbroth dilution technique described by the NCCLS. Topisomerase IV (parC) and DNA gyrase (gyrA) mutations were confirmed by sequencing the QRDR region of each gene. Two fluoroquinolone susceptible and 8 resistant isolates (3 CFX resistant. 5 CFX, TFX resistant) were selected for study. […] Antibiotics were removed using dilution into sterile media and the PAE assessed using a viable colony counting technique.

Row | SMILES | MIC [1] | MIC50 [1] | MIC90 [1] | mean PAE ([2]; GFX, 4× MIC for 2 hours) | mean PAE ([2]; GFX, 10× MIC for 2 hours) | difference in duration of PAE between CFX or TFX susceptible and resistant strains ([2]; p<0.05) | mean PAE ([2]; TFX susceptible isolates, 4× MIC for 2 hours) | mean PAE ([2]; TFX susceptible isolates, 10× MIC for 2 hours)
1 | C[C@@H]1CN(c2c(F)c(N)c3c(=O)c(C(=O)O)cn(C4CC4)c3c2F)C[C@H](C)N1 [SPA, sparfloxacin] | 0.25 to 32 µg/mL (≈ 0.637 to 81.5 µM) | 0.5 µg/mL (≈ 1.27 µM) | 16 µg/mL (≈ 40.8 µM) |  |  |  |  | 
2 | COc1c(N2C[C@@H]3CCCN[C@@H]3C2)c(F)cc2c(=O)c(C(=O)O)cn(C3CC3)c12 [MOX, moxifloxacin] | 0.12 to 4 µg/mL (≈ 0.299 to 9.96 µM) | 0.25 µg/mL (≈ 0.623 µM) | 2 µg/mL (≈ 4.98 µM) |  |  |  |  | 
3 | CO/N=C1\CN(c2nc3c(cc2F)c(=O)c(C(=O)O)cn3C2CC2)CC1CN (racemic) [GFX, (R,S)-7-(3-aminomethyl-4-methoxyiminopyrrolidin-1-yl)-1-cyclopropyl-6-fluoro-4-oxo-1,4-dihydro-1,8-naphthyridine-3-carboxylic acid] | 0.03 to 5 µg/mL (≈ 0.077 to 12.8 µM) | 0.06 µg/mL (≈ 0.154 µM) | 0.25 µg/mL (≈ 0.642 µM) | 2.7 h | 3.8 h | no significant difference |  | 
4 | N[C@@H]1[C@H]2CN(c3nc4c(cc3F)c(=O)c(C(=O)O)cn4-c3ccc(F)cc3F)C[C@@H]12 [TFX, trovafloxacin] | 0.06 to 8 µg/mL (≈ 0.144 to 19.2 µM) | 0.5 µg/mL (≈ 1.2 µM) | 4 µg/mL (≈ 9.61 µM) |  |  |  | 2.1 h | 3.2 h
5 | Cc1c(F)c(N2CCNC(C)C2)cc2c1c(=O)c(C(=O)O)cn2C1CC1 (centres unmarked) [GRE, grepafloxacin] | 0.12 to 8 µg/mL (≈ 0.334 to 22.3 µM) | 0.5 µg/mL (≈ 1.39 µM) | 8 µg/mL (≈ 22.3 µM) |  |  |  |  | 
6 | COc1c(N2CCNC(C)C2)c(F)cc2c(=O)c(C(=O)O)cn(C3CC3)c12 (centres unmarked) [GAT, gatifloxacin] | 0.25 to 8 µg/mL (≈ 0.666 to 21.3 µM) | 0.5 µg/mL (≈ 1.33 µM) | 4 µg/mL (≈ 10.7 µM) |  |  |  |  | 
7 | C[C@H]1COc2c(N3CCN(C)CC3)c(F)cc3c(=O)c(C(=O)O)cn1c23 [LEV, levofloxacin] | 1 to 32 µg/mL (≈ 2.77 to 88.6 µM) | 2 µg/mL (≈ 5.53 µM) | 16 µg/mL (≈ 44.3 µM) |  |  |  |  | 
